From patent US9393250B2, “Phthalocyanine compounds useful as RecA inhibitors and methods of using same” (University of Saskatchewan, priority 2012, dated 2016)
Where a name gives a salt, the structure may show the parent alone.

Columns and labels:
[1] = test system: SOS response (E. coli strain SS996); test: SOS induction, GFP regulated by the sulA SOS promoter, flow cytometry; type: cell-based, Escherichia coli; settings: KAN 43 μM, CAM 46 μM, TET 21 μM, SPECT 808 μM; three hours
Experimental: To confirm that the bactericidal antibiotic potentiating activity of 4,4-Fe-PcTs was correlated with reduced SOS induction, SOS induction in the E. coli strain SS996 was monitored. This strain contains a green fluorescent protein (GFP) regulated by the sulA SOS promoter.
SS996 cultures were grown to an optical density at 600 nm (OD600) of 0.3. For cultures treated with 4,4-Fe-PcTs, the 4,4-Fe-PcTs was added to give a concentration of 25 μM and the culture was incubated for three hours at 37° C. Antibiotics were then added to yield concentrations of 2.5 μM (CFX), 40 μM (AMP), 43 μM (KAN), 21 μM (TET), 46 μM (CAM), or 808 μM (SPECT). Samples (˜10^6 cells) were taken immediately before the addition of antibiotics (time zero) and every hour for three hours. Samples were washed once in PBS, and resuspended in PBS prior to analysis by flow cytometry. GFP expression was monitored using flow cytometer (Beckman Coulter, Inc.) with a 488 nm argon laser and a 515-545 nm emission. Flow cytometry data were analyzed using Flowjo (Tree Star, Inc.).

[2] = test system: bacteria / ΔrecA bacterial strain; settings: cited from earlier work
[3] = test system: ATCC25922 cells; test: Neutropenic murine bacterial thigh infection model; type: in vivo, Escherichia coli; settings: mice treated only with ciprofloxacin 1 mg/kg s.c.; after 72 hours of infection
Experimental: Six-eight week-old, specific-pathogen-free, female CD-1 mice (weight, 25-35 g) were rendered neutropenic by intraperitoneal injection with 150 mg/kg cylcophosphamide (Sigma) four days before infection and 100 mg/kg cyclophosphamide 24 hours before infection. LB broth cultures inoculated from fresh ATCC25922 colonies and cells were grown to the log phase (OD600 of approximately 0.3) and diluted 1:1000 in LB broth. Thigh infections were produced by injecting 50 μl (approximately 10^6 CFUs) of diluted cultures into halothane-anesthetized mice. One group of mice was administrated inteperitoneal injection of 4,4-Fe-PcTs in conjunction with the second dose of cyclophosphamide (24 hours prior infection) (4,4-Fe-PcTs (pre)+CFX). Starting two hours after infection (defined as time zero), mice were administered subcutaneous injections of either 1 mg/kg ciprofloxacin alone (CFX) or co-treatment of 1 mg/kg ciprofloxacin with interperitoneal injection of 10 mg/kg 4,4-Fe-PcTs (4,4-Fe-PcTs+CFX and 4,4-Fe-PcTs (pre)+CFX) every 24 hours for 3 days. After 48 and 72 hours, three mice from each group were sacrificed, and their thighs removed and homogenized to determine the number of viable bacterial cells for both ciprofloxacin-sensitive and ciprofloxacin-resistant ATCC25922 cells. Serial dilutions of homogenates of the infected thigh were plated on LB agar (CFX Sensitive) and LB agar plates containing ciprofloxacin (40 nM) (CFX Resistant) to count viable cells for each of the three treatment groups.

[4] = test system: Pseudomonas aeruginosa ATCC27853; test: Antibiotic sensitivity assay (CFUs/ml), P. aeruginosa; type: cell-based; settings: ciprofloxacin 6.5 μM
Experimental: (§1) Bacterial cultures were diluted to 10^5 cells/mL in LB broth (ATCC25922) or MH broth (ATCC27853, ATCC29212, ATCC29213). Antibiotics and/or phthalocyanines were added at indicated concentrations and the culture was incubated at 37° C. Samples were collected at 0, 24, 48, and 72 hours and plated on LB agar (ATCC25922) or tryptic soy blood agar (ATCC27853, ATCC29212, ATCC29213) to determine CFUs/ml.
To confirm that the activity of 4,4-Fe-PcTs was not specific to the gram-negative ATCC25922 E. coli, the ability of 4,4-Fe-PcTs to potentiate the activity of ciprofloxacin in another gram-negative (Pseudomonas aeruginosa ATCC27853) strain and two gram-positive (Staphylococcus aureus ATCC29213 and Enterococcus faecalis ATCC29212) strains was evaluated.

[5] = test system: ATCC25922 E. coli; test: Ciprofloxacin resistance assay and reconstruction assay (in vitro mutagenesis); type: cell-based, Escherichia coli
Experimental: An in vitro mutagenesis assay [1] was used to measure the ability of 4,4-Fe-PcTs to block the acquisition of ciprofloxacin-induced resistance in ATCC25922 E. coli. ATCC25922 cells were plated on media containing ciprofloxacin in the presence or absence of 4,4-Fe-PcTs and cultured for 10 days. Colonies that appeared early in the assay (days 1 and 2) are believed to arise from pre-existing ciprofloxacin resistance mutations [1]. Colonies that appear later in the incubation (days 3 to 8) are due to ciprofloxacin resistance mutations acquired during exposure to ciprofloxacin or pre-existing mutations with a slow growth phenotype [1].
To distinguish between these two types of mutants, a reconstruction assay that tests for the time it takes for colonies to appear in the presence of ciprofloxacin was used. Colonies that appear at least two days faster than they appeared in the original ciprofloxacin mutagenesis screen were classified as colonies that acquire resistance after exposure to ciprofloxacin [1]. Colonies that appeared in the same number of days as in the ciprofloxacin resistance assay were classified as colonies with pre-existing mutations [1].
Twenty-five independent colonies of ATCC2592 were used to inoculate 25 LB broth cultures that were incubated at 37° C. for 25 hours. Viable cell counts in these cultures were determined by plating serial dilutions onto LB agar plates. One hundred microliters from each culture (˜10^8 cells) were plated in duplicate on LB agar containing ciprofloxacin (CFX) (40 nM) or ciprofloxacin (40 nM) and 4,4-Fe-PcTs (25 μM) (CFX+4,4-Fe-PcTs). Three additional 100 μL aliquots from three cultures were also plated on the same media to determine the number of viable cells per day. At 24 hour intervals, visible colonies were counted, removed from the plate, and stored at −80° C. for later use in the reconstruction assay and sequencing. Every 24 hours, in parallel with the resistance assay, small plugs of agar between visible colonies were excised from resistance assay plates. Agar plugs were homogenized in M9 buffer. Dilutions were plated in duplicate on LB plates to determine the total number of viable cells per day. The cells were also plated on LB containing CFX (40 nM) to determine if any CFX-resistant colonies remained after excision [1].
Reconstruction assays were used to determine whether ciprofloxacin resistant colonies were due to post-exposure mutation or due to mutation prior to ciprofloxacin exposure. Ciprofloxacin resistant clones isolated from the resistance assay were grown to saturation in LB media in 96 well plates. Cultures were then replica-plated in duplicate using a 96-pin replicator on LB plates to confirm viability and LB plates containing ciprofloxacin (40 nM) to confirm ciprofloxacin resistance. Ciprofloxacin-resistant clones that were isolated in the presence 4,4-Fe-PcTs were replica plated on LB and LB containing 4,4-Fe-PcTs (25 μM) and ciprofloxacin (40 nM). Clones that were resistant before ciprofloxacin exposure were defined as clones that formed colonies on the ciprofloxacin-containing media in the same number of days in the reconstruction assay as in the original resistance assay. Clones that mutated after exposure to ciprofloxacin were defined as clones that formed colonies earlier than in the original resistance assay [1].
The rate of ciprofloxacin resistance was defined as the number of ciprofloxacin-resistant mutants per viable cell that evolve as a function of time. […]

[6] = test system: E. coli strain ATCC25922; test: Antibiotic sensitivity assay (CFUs/ml), E. coli; type: cell-based, Escherichia coli; settings: for decrease in CFUs relative to ciprofloxacin treatment alone: compound 25 μM + ciprofloxacin 40 nM
Experimental: as §1
The ability of 4,4-Fe-PcTs and 3,4-Cu-PcTs to potentiate the activity of ciprofloxacin (abbreviated “CFX”) was tested. Ciprofloxacin inhibits DNA gyrase in bacteria, causing accumulation of double-stranded DNA breaks (DSBs) and inducing the SOS response. The inventors characterized the ability of 4,4-Fe-PcTs and 3,4-Cu-PcTs to potentiate the activity of ciprofloxacin in the pathogenic E. coli strain ATCC25922, which was used previously by Cirz et al. to evaluate the role of SOS response proteins in antibiotic resistance.

[7] = target: T1, EcRecA (Escherichia coli, UniProt P0A7G6); settings: gel shift; 0, 10, 100 μM
[8] = target: T2, RecA (Escherichia coli, UniProt P0A7G6)
Experimental: RecA (5 μM) and 3,4-Cu-PcTs (50 μM) were incubated in 0.15 M NaCl and 0.05 M Tris-HCl buffer at pH 7.4. The protein complexes were resolved by loading 2 ml of RecA/3,4-Cu-PcTs on a Pharmacia sephacryl S-300 column pre-equilibrated with the running buffer. The size exclusion column was calibrated with standard proteins with molecular weights of 35, 67, and 167 KD. Elution of proteins off the size exclusion column was monitored using absorbance at 280 nm.
Target sequence in this assay (P0A7G6 whole entry): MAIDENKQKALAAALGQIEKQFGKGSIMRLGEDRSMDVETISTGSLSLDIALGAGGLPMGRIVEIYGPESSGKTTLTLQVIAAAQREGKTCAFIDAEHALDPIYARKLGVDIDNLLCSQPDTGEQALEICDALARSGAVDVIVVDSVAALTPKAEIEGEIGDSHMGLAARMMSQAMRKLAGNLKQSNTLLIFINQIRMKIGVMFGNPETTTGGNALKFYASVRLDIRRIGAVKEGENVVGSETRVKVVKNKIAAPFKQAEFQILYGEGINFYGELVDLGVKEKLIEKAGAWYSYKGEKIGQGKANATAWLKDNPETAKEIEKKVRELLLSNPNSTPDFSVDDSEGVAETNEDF

[9] = target: EcRecA / EcLexA (Escherichia coli, UniProt P0A7G6); settings: in presence of ATPγS
Experimental: The LexA cleavage reaction (10 μl) contained 1 μM poly-(dT)45, 2 μM EcRecA, 10 μM EcLexA, 0.1 mM ATP-γ-S, 20 mM MgAc2, 50 mM Hepes-Tris at pH 7.6 and indicated concentrations of 4,4-Fe-PcTs or 3,4-Cu-PcTs. The reaction was incubated for 120 minutes at 21° C. and stopped by the addition of 5 μl of loading buffer (30% glycerol, 10% SDS, 0.2 M Tris-HCl at pH 6.8, 0.1% v/v 2-mercaptoethanol and 0.1% w/v bromophenol blue). The products were resolved using a 13% SDS-polyacrylamide gel. The proteins were stained with Coomassie Blue-R250.

[10] = target: T1, EcRecA; settings: in presence of ATPγS
Experimental: EcRecA (5 μM) was incubated with indicated concentrations of 4,4-Fe-PcTs or 3,4-Cu-PcTs in strand exchange buffer (2 mM ATP-γ-S(Sigma-Aldrich), 10 mM MgAc2, 100 mM KAc, 50 mM Hepes-Tris buffer at pH 7.6, 0.1% v/v 2-mercaptoethanol) for 10 minutes at 37° C. FAM43 (0.35 μM) was added and the reaction was incubated for 2 minutes. The reaction was started by the addition of 0.35 μM of the dsDNA substrate (annealing product of equimolar oligonucleotides 45A and 55A). The reaction was stopped at 30 minutes by adding EDTA to a final concentration of 20 mM and trypsin to a final concentration of 1 μg/μl. After 10 minutes, 10 μl of the reaction was mixed with 5 μl of loading buffer (30% glycerol and 0.1% bromophenol blue) and products were resolved using a 20% native acrylamide gel. The fluorescence emission in the gel was recorded using a Kodak GelLogic 200 system.

[11] = target: T1, EcRecA; settings: gel shift; 0, 10, 100 μM; remark: listed apart in the source
Experimental: EcRecA (4 μM), a 1.0-kb double-stranded DNA (dsDNA) PCR product (12 μM in base pairs), and indicated concentrations of 4,4-Fe-PcTs or 3,4-Cu-PcTs were incubated in binding buffer (5 mM MgAc2, 50 mM Tris-Hepes at pH 7.6) for 10 minutes at 37° C. EcRecA bound (slower migrating) and unbound dsDNA were resolved using a 1.0% agarose gel. The gel was stained with ethidium bromide and the fluorescence emission in the gel was recorded using a Kodak GelLogic 200 system.

[12] = target: T1, EcRecA; settings: compound 10 μM; poly-(dT)36-stimulated; relative to reaction without inhibitor
Experimental: An ATPase assay [18] was used to screen a set of commercially available anionic, aromatic molecules for inhibitors of RecA ATPase activity. The release of inorganic phosphate by ATP hydrolysis was monitored using a Malachite Green phosphate assay [18]. The ssDNA-dependent ATPase reaction contained 1 μM EcRecA, 6 μM ssDNA (poly-(dT)36, concentration in nucleotides), 5 mM ATP, 50 mM Tris-Hepes buffer at pH 7.4, 10 mM MgCl2, 0.1% v/v 2-mercaptoethanol, and indicated amounts of 4,4-Fe-PcTs or 3,4-Cu-PcTs. Phosphate levels were measured by transferring 25 μl of ATPase reaction to 475 μl of malachite green phosphate assay, which contained 0.033% w/v Malachite Green, 1.3% w/v ammonium molybdate. 1.0 M HCl was used to monitor the release of inorganic phosphate by ATP hydrolysis [18]. The green complex formed between Malachite Green, molybdate, and free orthophosphate was measured by recording the absorbance at 620 nm.
Results are the average of two independent experiments where the deviation was less than 10%.

[13] = target: T2, RecA; settings: 3,4-Cu-PcTs 3.75 μM; RecA 3.5 μM; AMPPNP
Target sequence in this assay (P0A7G6 2-353): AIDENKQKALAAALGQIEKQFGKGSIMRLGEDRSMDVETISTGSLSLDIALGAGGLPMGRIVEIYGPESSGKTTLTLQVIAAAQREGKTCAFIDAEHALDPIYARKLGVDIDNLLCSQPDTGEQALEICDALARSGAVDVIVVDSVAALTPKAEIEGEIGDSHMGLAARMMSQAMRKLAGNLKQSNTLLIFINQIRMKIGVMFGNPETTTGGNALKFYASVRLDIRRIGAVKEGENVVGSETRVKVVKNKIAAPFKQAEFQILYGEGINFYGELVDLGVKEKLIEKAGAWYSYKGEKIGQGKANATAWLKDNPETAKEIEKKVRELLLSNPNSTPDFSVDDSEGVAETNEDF
Experimental: RecA-dsDNA-AMPPNP complexes formed by incubating RecA (3.5 μM), calf thymus dsDNA (Sigma) at a 40 dsDNA:1 RecA ratio (w/w), AMP-PNP (adenosine 5′-(β,γ-imido)triphosphate) (Sigma) (1.3 mM), MgAc2 (Sigma) (2 mM), triethanolamine-HCl (Fisher) buffer (25 mM, pH 7.2) with or without 3,4-Cu-PcTs (3.75 μM) at 37° C. for 10 minutes. Samples were applied to carbon-coated grids and stained with 2% uranyl acetate (w/v). Images were recorded on film with a Tecnai 12 electron microscope operating at 80 keV with a nominal magnification of 30,000×. Negatives were scanned with a Nikon Coolscan 8000 densitometer at a raster of 4.2 Å/pixel.

[14] = target: DltA (Bacillus cereus, UniProt Q81G39); test: DltA control for specificity of ATPase inhibition; type: biochemical; settings: DltA assayed in the presence of 3,4-Cu-PcTs
Description: DltA catalyzes the breakdown of ATP into AMP and pyrophosphate, which is further broken down by yeast pyrophosphatase into phosphate for quantification. Results are the average of two independent experiments where the deviation was less than 10%.

[15] = target: MvRadA (Methanococcus voltae, UniProt O73948); settings: cited from earlier work
[16] = target: T2, RecA; settings: cited from earlier work
Target sequence in this assay (P0A7G6 2-353): as above

T1 sequence (P0A7G6 whole entry): as the sequence (P0A7G6 whole entry) above
Sequence of EcRecA / EcLexA (P0A7G6 whole entry): as above
Sequence of DltA (Q81G39 whole entry): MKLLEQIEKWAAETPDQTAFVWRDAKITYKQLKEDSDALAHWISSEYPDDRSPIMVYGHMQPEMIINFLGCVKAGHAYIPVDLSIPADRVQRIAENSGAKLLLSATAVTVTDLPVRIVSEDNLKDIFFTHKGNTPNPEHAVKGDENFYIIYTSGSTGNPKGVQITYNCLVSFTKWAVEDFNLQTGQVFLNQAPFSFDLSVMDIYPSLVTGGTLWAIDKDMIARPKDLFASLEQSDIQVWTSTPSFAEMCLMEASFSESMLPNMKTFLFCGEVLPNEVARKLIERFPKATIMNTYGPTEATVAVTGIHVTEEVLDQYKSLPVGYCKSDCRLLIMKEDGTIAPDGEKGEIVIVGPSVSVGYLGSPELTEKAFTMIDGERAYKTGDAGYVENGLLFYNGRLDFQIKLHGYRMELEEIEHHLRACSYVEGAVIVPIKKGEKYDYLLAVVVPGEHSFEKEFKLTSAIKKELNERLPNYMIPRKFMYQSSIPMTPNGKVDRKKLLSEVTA
Sequence of MvRadA (O73948 whole entry): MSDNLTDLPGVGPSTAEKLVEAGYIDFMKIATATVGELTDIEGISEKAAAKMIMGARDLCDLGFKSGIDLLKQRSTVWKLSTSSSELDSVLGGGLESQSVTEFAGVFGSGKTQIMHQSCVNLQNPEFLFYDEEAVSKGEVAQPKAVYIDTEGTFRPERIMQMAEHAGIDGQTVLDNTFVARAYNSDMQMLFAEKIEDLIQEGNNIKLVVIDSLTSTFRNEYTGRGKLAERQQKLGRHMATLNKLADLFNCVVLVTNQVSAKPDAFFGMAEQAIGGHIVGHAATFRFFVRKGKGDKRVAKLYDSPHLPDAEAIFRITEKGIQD

NC[C@H]1O[C@H](O[C@H]2[C@H](O)[C@@H](O[C@H]3O[C@H](CO)[C@@H](O)[C@H](N)[C@H]3O)[C@H](N)C[C@@H]2N)[C@H](O)[C@@H](O)[C@@H]1O [Kanamycin, kanamycin monosulfate]
induction of SOS-GFP reporter by antibiotic alone [1]: did not induce the SOS-GFP reporter

CO[C@H]1/C=C/O[C@@]2(C)Oc3c(C)c(O)c4c(O)c(cc(O)c4c3C2=O)NC(=O)/C(C)=C\C=C\[C@H](C)[C@H](O)[C@@H](C)[C@@H](O)[C@@H](C)[C@H](OC(C)=O)[C@@H]1C [Rifamycin, rifamycin]
SOS response and killing of bacteria ([2]; bacteria with RecA): activates the SOS response, but does not kill bacteria
activity in ΔrecA bacterial strain ([2]; ΔrecA bacterial strain): shows bactericidal activity

O=C(N[C@H](CO)[C@H](O)c1ccc([N+](=O)[O-])cc1)C(Cl)Cl [chloramphenicol]
induction of SOS-GFP reporter by antibiotic alone [1]: only very low levels of GFP expression

O=C(O)c1cn(C2CC2)c2cc(N3CCNCC3)c(F)cc2c1=O [ciprofloxacin, ciprofloxacin hydrochloride, reference compound]
ciprofloxacin-resistant cells in thigh [3]: Approximately 50,000 cells
sensitivity of ATCC27853 to ciprofloxacin compared with gram-positive strains [4]: less sensitive to ciprofloxacin than the two gram-positive strains
ciprofloxacin-resistant cells over time ([5]; cells treated with only ciprofloxacin): spike in ciprofloxacin-resistant cells at day 5
ciprofloxacin-resistant colonies caused by pre-existing mutations ([5]; ciprofloxacin-alone (40 nM)): 29%

CN[C@@H]1[C@H](O)[C@H](NC)[C@H]2O[C@@]3(O)C(=O)C[C@@H](C)O[C@H]3O[C@@H]2[C@H]1O [spectinomycin, spectinomycin dihydrochloride]
induction of SOS-GFP reporter by antibiotic alone [1]: only very low levels of GFP expression

aluminum (III) phthalocyanine chloride tetrasulfonic acid [Al-PcTs]
decrease in CFUs relative to ciprofloxacin treatment alone ([6]; 24 hours): ~100 fold

copper phthalocyanine-3,4′,4″,4′″-tetrasulfonic acid tetrasodium salt [3,4-Cu-PcTs]
inhibition of RecA ssDNA-binding activity [7]: in the micromolar range
effect on molecular weight (oligomeric state) of RecA complex ([8]; 3,4-Cu-PcTs 50 μM, RecA 5 μM): reduced the molecular weight of the RecA complex to a size consistent to the RecA ring-shaped hexamer storage complex
elution size of 3,4-Cu-PcTs/RecA complex ([8]; pre-incubation with 3,4-Cu-PcTs 50 μM, RecA alone eluted near the void volume): ~200 KD
inhibition of LexA cleavage [9]: inhibited
inhibition of DNA strand-exchange [10]: inhibited
inhibition of RecA dsDNA-binding activity [11]: in the micromolar range
inhibition of EcRecA ATPase activity [12]: high degree of inhibition
effect on RecA filament formation [13]: inhibited
potentiation of ciprofloxacin activity ([6]; ciprofloxacin 40 nM): potentiated the activity of ciprofloxacin
colony forming units (CFUs) ([6]; co-treated with ciprofloxacin 40 nM and compound at concentrations above 25 μM): no colony forming units (CFUs) were observed
CFUs ([6]; compound 25 μM plus ciprofloxacin 40 nM, 24 hours): no CFUs were observed
specificity of ATPase inhibition (DltA control) [14]: specific for inhibiting RecA ATPase activity

copper phthalocyanine-tetrasulfonic acid [Cu-PcTs]
decrease in CFUs relative to ciprofloxacin treatment alone ([6]; 24 hours): ~100 fold

metatungstate (W12O40^6−)
MvRadA ATPase, DNA-binding, and DNA strand-exchange activities [15]: inhibited
inhibition of RecA activity within E. coli cells [16]: unable to inhibit

nickel (II) phthalocyanine-tetrasulfonic acid [Ni-PcTs]
decrease in CFUs relative to ciprofloxacin treatment alone ([6]; 24 hours): ~100 fold

phthalocyanine tetrasulfonic acid [H-PcTs]
decrease in CFUs relative to ciprofloxacin treatment alone ([6]; 24 hours): ~100 fold

zinc (II) phthalocyanine tetrasulfonic acid [Zn-PcTs]
decrease in CFUs relative to ciprofloxacin treatment alone ([6]; 24 hours): ~100 fold
